In patent publication US20140011930A1, “Bio-Renewable Carboxylic Acid Esters and Mixtures Thereof Useful as Plasticizers” (TEKNOR APEX COMPANY, priority 2012, published 2014):

Experiments:
Format in all cases: physicochemical
[1] = Specific Gravity of PVC compounds (ASTM D-792)
[2] = Dynamic Heat Stability (ASTM D-2538)
[3] = % Volatile Loss (ASTM D-1203)
[4] = Hardness (Shore) of PVC compounds (ASTM D-2240)
[5] = Gamma irradiation stability (yellowness index YI)
Text: Additional advantages of the compounds of the invention are their low cytotoxicity and resistance to gamma radiation especially when compared to the industry standard of di-2-ethylhexyl phthalate (DEHP). Gamma radiation stability is important since it allows for the convenient sterilization of articles prepared from PVC compound. The key performance standard is non-yellowing of the PVC compound after exposure to gamma radiation. An example of the improvement in gamma stability is shown below.

[6] = Tensile, 100% modulus, elongation of PVC compounds (ASTM D-638); set-up: 100% Modulus: unit not given here
[7] = Oven Stability (210° C.) (ASTM D-1203)
[8] = Brittle Point (ASTM D-746)
[9] = Loop Spew compatibility test (ASTM D-3291)
Protocol: This plasticizer was evaluated in the same formulations as test compounds 1, 2, 3 along with DEHP and Example 1.
PVC compounds were prepared with the plasticizers described in Example 1 and Example 2, and a commercial sample of DEHP, containing standard heat stabilizers, antioxidant and a lubricant. The compounds were evaluated in standard laboratory tests according the following ASTM methods: […]

[10] = PVC Test Compound 59-67 A Gauge
[11] = PVC Test Compound 59-67 A Gauge, DEHP vs Example 1/ESO series
[12] = PVC Test Compound 80-85 C Gauge
[13] = PVC Test Compound 80-85 C Gauge, DEHP vs Example 1/ESO series
[14] = PVC Test Compound 81-85 A Gauge
[15] = PVC Test Compound-Gamma Irradiation Stability-A
[16] = Gamma Radiation = 35 kGys (3.5 Mrads)
[17] = Gamma Radiation = 35 kGys (3.5 Mrads), oven aging 48 hr. at 50° C.

CCCCC(CC)COC(=O)c1ccccc1C(=O)OCC(CC)CCCC (stereo not shown) [DEHP, di-(2-ethylhexyl) phthalate]
Specific Gravity [1, 10]: 1.16 | Specific Gravity [1, 11]: 1.16 | Specific Gravity [1, 12]: 1.28 | Specific Gravity [1, 13]: 1.28 | Specific Gravity [1, 14]: 1.23 | Specific Gravity [1, 15]: 1.24 | Dynamic Heat Stability [2, 10]: 72 min | Dynamic Heat Stability [2, 11]: 54 | Dynamic Heat Stability [2, 12]: 19 min | Dynamic Heat Stability [2, 13]: 7 min | Dynamic Heat Stability [2, 14]: 40 min | % Volatile Loss [3, 10]: 3.54% | % Volatile Loss [3, 11]: 4.58% | % Volatile Loss [3, 12]: 1.56% | % Volatile Loss [3, 13]: 1.67% | % Volatile Loss [3, 14]: 2.73% | Hardness Shore A (15 sec delay) [4, 10]: 60 | Hardness Shore A (instant) [4, 10]: 68 | Hardness Shore A (15 sec delay) [4, 11]: 56 | Hardness Shore A (instant) [4, 11]: 60 | Hardness Shore C (10 sec delay) [4, 12]: 85 | Hardness Shore C (instant) [4, 12]: 93 | Hardness Shore C (10 sec delay) [4, 13]: 85 | Hardness Shore C (instant) [4, 13]: 90 | Hardness Shore C (10 sec delay) [4, 14]: 83 | Hardness Shore C (instant) [4, 14]: 90 | Hardness Shore A (15 sec delay) [4, 15]: 86 | Hardness Shore A (instant) [4, 15]: 91 | Absolute YI After 35 kGys Gamma [5, 16]: 12.24 | Change in YI from Original After 35 kGys Gamma [5, 16]: 5.46 | Absolute YI After 35 kGys Gamma and Oven Aging (48 hr. at 50° C.) [5, 17]: 17.58 | Change in YI from Original After 35 kGys Gamma and Oven Aging (48 hr. at 50° C.) [5, 17]: 10.80 | Absolute YI Original ([5]; before irradiation): 6.78 | 100% Modulus [6, 10]: 554 | % Elongation [6, 10]: 439% | Tensile (psi) [6, 10]: 1559 psi | 100% Modulus [6, 11]: 518 | % Elongation [6, 11]: 451% | Tensile (psi) [6, 11]: 1564 psi | 100% Modulus [6, 12]: 3440 | % Elongation [6, 12]: 281% | Tensile (psi) [6, 12]: 3840 psi | 100% Modulus [6, 13]: 3617 | % Elongation [6, 13]: 282% | Tensile (psi) [6, 13]: 4083 psi | 100% Modulus [6, 14]: 1490 | % Elongation [6, 14]: 380% | Tensile (psi) [6, 14]: 2875 psi | Oven Stability (210° C.) Decomposition Failure [7, 10]: 50 min | Oven Stability (210° C.) Initial Color [7, 10]: Clear | Oven Stability (210° C.) Initial Color Failure [7, 10]: 15 min | Oven Stability (210° C.) Decomposition Failure [7, 11]: 60 min | Oven Stability (210° C.) Initial Color [7, 11]: Clear | Oven Stability (210° C.) Initial Color Failure [7, 11]: 15 min | Oven Stability (210° C.) Decomposition Failure [7, 12]: 50 min | Oven Stability (210° C.) Initial Color [7, 12]: Clear | Oven Stability (210° C.) Initial Color Failure [7, 12]: 15 min | Oven Stability (210° C.) Decomposition Failure [7, 13]: 50 min | Oven Stability (210° C.) Initial Color [7, 13]: Clear | Oven Stability (210° C.) Initial Color Failure [7, 13]: 10 min | Oven Stability (210° C.) Decomposition Failure [7, 14]: 50 min | Oven Stability (210° C.) Initial Color [7, 14]: Clear | Oven Stability (210° C.) Initial Color Failure [7, 14]: 15 min | Brittle Point ° C. [8, 10]: −48.5 °C | Brittle Point ° C. [8, 11]: −50.5 °C | Brittle Point ° C. [8, 12]: −17.0 °C | Brittle Point ° C. [8, 13]: −22 °C | Brittle Point ° C. [8, 14]: −34.5 °C | Loop Spew [9, 10]: None | Loop Spew [9, 11]: None | Loop Spew [9, 12]: None | Loop Spew [9, 13]: None | Loop Spew [9, 14]: None
